The values that follow come from patent US11692175B2, “Methods for generation of pluripotent and multipotent cells” (The USA, as represented by the Secretary, Dept. of Health …, priority 2012, dated 2023).

Data set [1] deals with WT splenic T cells from c-Myc-EGFP knock-in mice. Kind of data set: c-Myc mRNA after CD47 morpholino knockdown in T cells. It is filed as cell-based, mouse. On the procedure: RNA extraction and Real Time PCR: Total RNA was extracted using TRIzol® reagent (Invitrogen, Rockville, Md.) 24-36 hours after transfection or as indicated. Harvested mouse tissues were frozen in liquid nitrogen or placed into RNA Later™ RNA Stabilization Reagent (Ambion, Life Technologies, Grand Island, N.Y.). Whole organs (lungs, spleen, kidney, testis, skeletal muscle, brain, heart, and liver) were homogenized in TRIzol® reagent, and RNA was isolated, cDNA was prepared using First Maxima First Strand cDNA Synthesis kit for RT-qPCR (Fermentas Life Sciences, Glen Burnie, Md.). Real Time PCR was performed using the primers listed herein as SEQ ID NOs: 3-34, and SYBR Green PCR master reaction mix (AB applied Sciences, Life Technologies, Grand Island, N.Y.) on an MJ Research OPTICON I instrument (Bio-Rad) with the following amplification program: 95° C. for 15 minutes, followed by 40 cycles of 95° C. for 15 seconds, 58° C. for 20 seconds, 72° C. for 25 seconds, and 7° C. for 1 minute. Melting curves were performed for each product from 30° C. to 95° C. reading every 0.5° C. with a 6-second dwell time. The fold changes in mRNA expression were calculated by normalizing to hypoxanthine phosphoribosyltransferase (HPRT1) and TATA-box binding protein associated factor (TAF9) for mouse tissues and endothelial cells, or β-2 microglobulin (B2M) mRNA levels for spleen and isolated splenocytes. […]

In data set [2] the test system is HUVEC. Kind of data set: MTS proliferation assay of treated HUVEC. It counts as cell-based, human. On the procedure:
Cell proliferation assays: Equal numbers of mouse lung endothelial cells from WT and CD47 (Passage 1) were plated in 96 well plates using RPMI+1% FBS. After 72 hours, net cell proliferation was assessed by the increase in formazan absorbance versus controls assessed at time 0 using Cell Titer 96R aqueous MTS kit (Promega, Madison, Wis.). DNA synthesis was measured using a BrdU Assay (EMD Biosciences, Billerica, Mass.).
Proliferative capacities of the treated HUVEC (CD47 morpholino, 7N3 peptide, or 604 control peptide) were assessed using MTS assays.

Another data set deals with CD47. Kind of data set: In vivo morpholino knockdown of CD47 in WT mice. Details: species or system mouse. Conditions: for Oct4 mRNA level in spleen / Sox2 mRNA level in spleen / c-Myc mRNA level in spleen: at 48 hours, WT mice; for CD47 protein expression in vivo: intraperitoneal injection into WT mice. As to the method: RNA extraction and Real Time PCR: Total RNA was extracted using TRIzol® reagent (Invitrogen, Rockville, Md.) 24-36 hours after transfection or as indicated. Harvested mouse tissues were frozen in liquid nitrogen or placed into RNA Later™ RNA Stabilization Reagent (Ambion, Life Technologies, Grand Island, N.Y.). Whole organs (lungs, spleen, kidney, testis, skeletal muscle, brain, heart, and liver) were homogenized in TRIzol® reagent, and RNA was isolated, cDNA was prepared using First Maxima First Strand cDNA Synthesis kit for RT-qPCR (Fermentas Life Sciences, Glen Burnie, Md.). Real Time PCR was performed using the primers listed herein as SEQ ID NOs: 3-34, and SYBR Green PCR master reaction mix (AB applied Sciences, Life Technologies, Grand Island, N.Y.) on an MJ Research OPTICON I instrument (Bio-Rad) with the following amplification program: 95° C. for 15 minutes, followed by 40 cycles of 95° C. for 15 seconds, 58° C. for 20 seconds, 72° C. for 25 seconds, and 7° C. for 1 minute. Melting curves were performed for each product from 30° C. to 95° C. reading every 0.5° C. with a 6-second dwell time. The fold changes in mRNA expression were calculated by normalizing to hypoxanthine phosphoribosyltransferase (HPRT1) and TATA-box binding protein associated factor (TAF9) for mouse tissues and endothelial cells, or β-2 microglobulin (B2M) mRNA levels for spleen and isolated splenocytes. B2M was used for normalization of mRNA levels in human cells. Note that the total RNA yield per cell was higher for all CD47-null and CD47-deficient cells and tissues as compared to WT.
CD47 knockdown in T cells and in WT mice: A translation-blocking antisense morpholino oligonucleotide complementary to human and murine CD47 ([…]; SEQ ID NO: 35) and a 5-base mismatch control morpholino (CGTgACAGcCAcGACCgACTGCgCA; SEQ ID NO: 36) were obtained from GeneTools, LLC (Philomath, Oreg.) as previously described (Isenberg et al., Circ Res 100, 712-720, 2007). Primary T cells isolated from c-Myc EGFP knock-in mouse were transfected using morpholinos (2.5 μM) along with Endo-porter (GeneTools, LLC) delivery reagent according to manufacturer's instructions. Mice were treated by injection of 750 μl of 10 μM morpholino in saline as described (Maxhimer et al., Sci. Transl. Med. 1, 3ra7, 2009). Organs were harvested for mRNA isolation after 48 hours.

Data set [3] has as its system HUVEC. Kind of data set: Sustained proliferation / self-renewal of HUVEC in continuous culture. It is filed as cell-based, human. From the text:
Human umbilical vein endothelial cells (HUVEC), which express CD47, normally become senescent with repeated passage in tissue culture (FIG. 16A).
(§1) Therefore, antisense suppression of CD47 is sufficient to induce reprogramming of primary endothelial cells of a mesodermal lineage into an ectodermal lineage.

In data set [4] the test system is HUVEC. The data set can be described thus: Direct neural differentiation of HUVEC. It counts as cell-based, human. On the procedure: as §1
(§2) A new vial of HUVEC at passage 1 was thawed and split in to two 25 cm^3 Nunc tissue culture flasks. One flask (P1) was treated with CD47-MO (2.5 μM). The other was kept as untreated. The HUVEC were transferred in to new Nunc tissue culture flask 75 cm^3 and cultured for 2 weeks using EGM2 medium. After 2 weeks, the HUVEC (untreated and CD47-MO treated) were assessed for generation of EBs, neural differentiation, and cardiomyocytes differentiation. […] Direct Neural Differentiation media: Equal numbers of HUVEC cells (untreated and cd47-mo) were cultured with neural basal media (same for mouse lung endothelial cells) for 6 days. […] After 6 days, the neural basal media was replaced with neural differentiation media (same used for mouse lung endothelial cells). None of the untreated HUVEC survived.

The subject of data set [5] is HUVEC. The data set can be described thus: EB formation of HUVEC in serum free medium. It is filed as cell-based, human. Conditions: after 3-6 days. On the procedure:
as §2

Data set [6] deals with HUVEC. Kind of data set: Direct cardiomyocyte differentiation of HUVEC. It counts as cell-based, human. As to the method: Finally, equal numbers of HUVEC (untreated and cd47-mo treated at passage 1) were plated in 6-well plates with EGM2 media for 24 hours. The next day, EGM2 medium was replaced with cardiomyocyte differentiation media (Millipore). […] CD47-MO cells survived up to 10 days. Thus, antisense suppression of CD47 is sufficient to induce reprogramming of primary endothelial cells into cardiomyocyte lineage.

With “CGTCACAGGCAGGACCCACTGCCCA (all phosphorodiamidate morpholino (PMO)) [CD47 morpholino]”, in data set [1] (at 24 h, morpholino 2.5 μM), the “increase in c-Myc mRNA level” value is recorded as 7 fold. For the same sequence, the “c-Myc mRNA expression (FIG. 6A)” value in data set [1] (in words, legend says WT lung endothelial cells) is “increases”. Also, the “proliferation (MTS)” value is given as “significantly increased proliferation” with HUVEC [2] (3 weeks post-treatment, relative to control HUVEC) and “slight but not significant enhancement of proliferation” in the data set with HUVEC [2] (6 days post-treatment). Moreover, the “Oct4 mRNA level in spleen” value is reported as “induction” in the data set on CD47 and “elevates” with CD47 (listed as CD47-MO). The “Sox2 mRNA level in spleen” value is on record as “induction” in the data set with CD47 and “elevates” with CD47 (listed as CD47-MO). Further, the entries for the “c-Myc mRNA level in spleen” value with CD47 and in the data set with CD47 (listed as CD47-MO) were “induction” and “elevates”, respectively. Further, the “CD47 protein expression in vivo” value was “significantly decreased” in the data set on CD47 and “knockdown” in the data set with CD47 (listed as CD47-morpholino). For the same sequence, the self-renewal entry in the data set with HUVEC [3] (antisense CD47 morpholino at 2.5 μM, one treatment) was “enabled self-renewal”. Further, the “proliferative response after second treatment” value in the data set on HUVEC [3] (second treatment, same concentration (2.5 μM)) is “enhanced proliferative response”. In the data set on HUVEC [4] (6 days, CD47-MO 2.5 μM), the “survival in neural basal media” value is on record as “survived better than untreated”. The “phenotype in neural differentiation media” value in the data set on HUVEC [4] (after 6 days neural basal media) is given as “exhibited neural phenotype”. The “appearance of cells with neuronal phenotypes” value in the data set with HUVEC [4] (direct transfer into neural differentiation medium) is “sporadic appearance of cells with neuronal phenotypes”. Moreover, the “survival in neural differentiation media” value in the data set on HUVEC [4] (numbers were low) is given as “up to 15 days”. The “cell aggregation in serum free medium” value with HUVEC [5] is reported as “formed different phenotype cell aggregation”. Moreover, the “survival in cardiomyocyte differentiation media” value in the data set with HUVEC [6] is reported as “up to 10 days”. In the data set with HUVEC [6] (untreated HUVEC unable to survive after 3 days), the “survival and differentiation in cardiomyocyte differentiation media” value was “survived and underwent differentiation”.
